Calls of active or inactive are those of the source.
Tests used:
[1] = biological target: Eukaryotic translation initiation factor 4E (Mus musculus, UniProt P63073); test: blockers of eIF4G binding by eIF4E – biochemical, TR-FRET, dose response (AID 855); type: functional;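 note: potency for disrupting eIF4E binding to eIF4GI seen as loss of FRET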
Major prion protein = Major prion protein (Homo sapiens, UniProt P04156); type: functional, cell-based
cells [2] = test: cells
[3] = blockers of HIV-1 envelope-mediated cell-cell fusion – cherry-pick, dose response (AID 652057); type: functional, cell-based
[4] = viability loss in CEM21 cells – cell-based, CellTiter-Glo luminescence, cherry-picked, cytotoxicity control for viral fusion inhibitor project, dose response (AID 652042); type: functional;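 note: potency for signal decrease meaning cytotoxicity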
[5] = blockers of HIV-1 ZM109 envelope-driven cell-cell fusion – HeLa effector, CEM target cells, luciferase, cherry-pick, dose response (AID 652058); type: functional, cell-based;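 note: luciferase signal from HIV-1 Env mediated cell-cell fusion of effector and target cells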
[6] = off-target signal loss in HeLa-CEM21 co-culture – HeLa F-luc CTL cells, cherry-picked, counter-screen for HIV-1 Env fusion inhibitor project, dose response (AID 652040); type: functional, cell-based;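 note: potency for signal decrease marking cytotoxic or nonspecific inhibition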
Galanin receptor type 3 = biological target: T1, Galanin receptor type 3 (Homo sapiens, UniProt O60755); test: Fluorescence-based cell-based primary high throughput dose response assay to identify antagonists of the Galanin Receptor 3 (GalR3).; type: functional
T1 sequence (O60755 whole entry): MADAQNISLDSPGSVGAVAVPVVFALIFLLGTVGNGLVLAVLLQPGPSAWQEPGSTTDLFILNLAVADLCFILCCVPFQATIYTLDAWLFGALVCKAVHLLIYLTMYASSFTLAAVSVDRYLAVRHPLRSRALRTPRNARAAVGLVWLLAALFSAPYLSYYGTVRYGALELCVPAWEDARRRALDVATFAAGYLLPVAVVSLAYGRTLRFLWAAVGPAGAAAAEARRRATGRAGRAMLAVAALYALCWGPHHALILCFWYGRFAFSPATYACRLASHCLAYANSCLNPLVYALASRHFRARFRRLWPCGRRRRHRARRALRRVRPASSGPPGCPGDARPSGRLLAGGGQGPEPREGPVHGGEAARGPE

cells [7] = type: functional, cell-based; conditions: HEK-CNG
Leucine aminopeptidase = biological target: T2, Leucine aminopeptidase (Plasmodium falciparum 3D7, UniProt Q8IL11); test: P. falciparum M17LAP inhibitors, primary screen, biochemical, fluorogenic H-Leu-NHMec substrate, 1536-well (AID 1619); type: functional
T2 sequence (Q8IL11 whole entry): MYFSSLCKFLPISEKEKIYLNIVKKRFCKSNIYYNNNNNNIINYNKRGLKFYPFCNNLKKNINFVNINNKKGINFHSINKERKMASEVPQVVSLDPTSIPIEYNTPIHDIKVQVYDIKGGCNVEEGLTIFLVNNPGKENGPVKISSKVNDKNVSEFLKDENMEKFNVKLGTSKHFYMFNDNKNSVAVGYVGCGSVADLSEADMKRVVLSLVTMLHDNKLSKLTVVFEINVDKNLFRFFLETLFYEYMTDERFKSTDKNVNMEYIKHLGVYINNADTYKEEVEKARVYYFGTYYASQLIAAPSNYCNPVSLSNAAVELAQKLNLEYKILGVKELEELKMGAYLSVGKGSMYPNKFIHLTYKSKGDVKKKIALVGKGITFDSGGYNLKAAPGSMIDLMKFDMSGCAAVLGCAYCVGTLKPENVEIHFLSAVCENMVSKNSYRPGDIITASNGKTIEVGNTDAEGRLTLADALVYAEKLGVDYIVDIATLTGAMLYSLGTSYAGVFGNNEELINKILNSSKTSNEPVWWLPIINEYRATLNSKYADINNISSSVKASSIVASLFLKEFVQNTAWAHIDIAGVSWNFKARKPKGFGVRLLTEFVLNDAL

[8] = viability of uninfected HEp-2 cells – cell-based, HTS, cytotoxicity control for RSV inhibitor project, dose response (AID 2410); type: functional; conditions: human respiratory syncytial virus
Vero = test: cells; type: functional, cell-based; conditions: Chlorocebus sabaeus
cells [9] = test: cells; remark: listed apart in the source
[10] = biological target: T3, Calpain-2 catalytic subunit (Sus scrofa, UniProt P43367); test: m-calpain protease blockers, concentration series – biochemical, fluorogenic peptide substrate, dose response (AID 1420); type: functional
T3 sequence (P43367 whole entry): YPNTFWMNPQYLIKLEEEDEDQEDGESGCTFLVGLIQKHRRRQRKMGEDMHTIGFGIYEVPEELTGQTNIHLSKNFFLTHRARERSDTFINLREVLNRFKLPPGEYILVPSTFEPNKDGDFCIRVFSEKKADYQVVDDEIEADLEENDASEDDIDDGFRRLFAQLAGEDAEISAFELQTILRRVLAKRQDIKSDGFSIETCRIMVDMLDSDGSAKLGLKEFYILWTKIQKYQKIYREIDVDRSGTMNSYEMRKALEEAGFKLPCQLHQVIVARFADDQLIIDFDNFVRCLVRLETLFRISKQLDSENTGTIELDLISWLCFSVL

Aminopeptidase N = biological target: T4, Aminopeptidase N (Plasmodium falciparum FcB1/Columbia, UniProt O96935); test: malaria alanyl aminopeptidase activity blockers – biochemical, fluorogenic H-Leu-NHMec substrate, 1536-well (AID 1445); parameters: species or system Plasmodium falciparum 3D7, 3D7
T4 sequence (O96935 whole entry): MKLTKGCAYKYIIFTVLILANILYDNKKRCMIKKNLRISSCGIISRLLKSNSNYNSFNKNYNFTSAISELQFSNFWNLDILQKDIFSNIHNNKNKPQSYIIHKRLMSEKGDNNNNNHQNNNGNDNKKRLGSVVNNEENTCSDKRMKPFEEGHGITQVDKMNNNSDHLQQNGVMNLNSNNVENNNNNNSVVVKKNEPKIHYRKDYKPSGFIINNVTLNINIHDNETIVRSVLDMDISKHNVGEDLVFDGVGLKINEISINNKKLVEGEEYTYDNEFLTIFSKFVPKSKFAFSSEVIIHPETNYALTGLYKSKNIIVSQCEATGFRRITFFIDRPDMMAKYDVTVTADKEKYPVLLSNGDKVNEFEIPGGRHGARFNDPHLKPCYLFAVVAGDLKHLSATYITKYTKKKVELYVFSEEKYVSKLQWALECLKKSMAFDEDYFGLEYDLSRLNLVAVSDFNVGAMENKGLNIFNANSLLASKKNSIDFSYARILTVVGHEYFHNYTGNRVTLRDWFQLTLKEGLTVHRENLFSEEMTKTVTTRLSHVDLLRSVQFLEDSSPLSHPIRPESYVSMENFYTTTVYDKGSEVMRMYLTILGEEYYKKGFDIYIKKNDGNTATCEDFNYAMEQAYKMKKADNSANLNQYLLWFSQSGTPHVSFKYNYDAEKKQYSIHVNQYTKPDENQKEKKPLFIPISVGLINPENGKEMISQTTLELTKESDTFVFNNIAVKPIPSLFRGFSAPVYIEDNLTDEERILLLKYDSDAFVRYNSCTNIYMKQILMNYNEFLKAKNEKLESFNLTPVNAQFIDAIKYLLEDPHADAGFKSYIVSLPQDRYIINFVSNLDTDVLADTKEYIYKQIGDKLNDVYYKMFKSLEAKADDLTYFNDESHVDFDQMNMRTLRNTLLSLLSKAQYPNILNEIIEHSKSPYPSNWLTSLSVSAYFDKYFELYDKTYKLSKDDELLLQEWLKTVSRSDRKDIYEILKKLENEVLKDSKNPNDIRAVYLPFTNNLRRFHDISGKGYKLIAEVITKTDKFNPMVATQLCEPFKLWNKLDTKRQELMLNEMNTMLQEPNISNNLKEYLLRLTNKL

[11] = HEK-293T viability loss after treatment – luminescence, T-cell screen hits, cytotoxicity control for TCR NF-kB inhibitor project, dose response (AID 489026); type: functional, cell-based;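 note: cells exposed to compound about 14 hours before the viability readout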
[12] = A cytotoxicity screen of small molecule inhibitors of the PhoP region in Salmonella typhi identified in the primary screen. [Related pubchem assays: 1850, 1864, 1985 ]; type: functional
[13] = biological target: NAD-dependent protein deacylase sirtuin-5, mitochondrial (Homo sapiens, UniProt Q9NXA8); test: sirtuin-5 deacylation blockers, concentration series – biochemical, fluorescence imaging, cherry-pick, set 5, dose response (AID 720591);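 note: desuccinylation of succinyl peptide AMC substrate read as fluorescence after trypsin release; potency of inhibitors that lower fluorescence and may act on trypsin instead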
[14] = NIH-3T3 fibroblast cytotoxicity, dose response, cytotoxicity control, cell-based, fluorescence, Alamar Blue, secondary assay (AID 2327); type: functional;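 note: NIH-3T3 mouse fibroblasts cultured with fluconazole at 8 µg/mL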
cells [15] = type: functional, cell-based
[16] = fluconazole-exposed Candida albicans growth modulators – fluorescence, retest, confirmation (AID 2467); type: functional, cell-based
cells [17] = type: functional, cell-based; remark: listed apart in the source
HEK293 = test: EBV LMP1 TES2 canonical NF-kB signalling blockers – cell-based, HEK293, luciferase, cherry-pick, dose response (AID 588343); type: functional; conditions: Homo sapiens
INS1 = test: INS-1E survival protection against cytokine death – cell-based, luminescence, retest, dose response (AID 449756); type: functional; conditions: Rattus norvegicus;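 note: cell death triggered by IL-1 beta plus TNF-alpha plus IFN-gamma mixture; protective hits raise ATP signal compared with cytokine alone wells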
Paired box protein Pax-8 = Paired box protein Pax-8 (Homo sapiens, UniProt Q06710); test: PAX8 transcriptional activity inhibition in RMG-I – RMG-I cells, luciferase, cherry-pick, dose response (AID 687027); type: functional, cell-based;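 note: luciferase reporter driven by Pax8 target thyroperoxidase promoter measured by SteadyGlo luminescence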
[18] = OVCAR-3 cell viability loss – plate reader, dry powder samples, PAX8 inhibitor project, dose response (AID 743044); type: functional, cell-based
[19] = OVCAR8 cell viability loss – plate reader, dry powder samples, PAX8 project, dose response (AID 743197); type: functional, cell-based; conditions: OVCAR-8

COc1cc(-c2[nH]ncc2CN2CCN(Cc3cccs3)CC2)cc(OC)c1OC
IC50 [1]: 50 µM (inactive)

CCc1cc2cccc(C)c2nc1SCC(=O)NNC(=O)c1ccco1
IC50 (Major prion protein): 3.73 µM (active)
IC50 (cells [2]): > 138 µM (inactive)

Cc1ccc(S(=O)(=O)N(C)C)cc1NC(=O)C(C)N(C)CCOc1ccc(Cl)cc1 (stereo not drawn)
AC50 [3]: 18.7 µM (active)
AC50 [4]: 57 µM (active)
AC50 [5]: 1.85 µM (active)
AC50 [6]: 39.3 µM (active)

Cc1ccc(C(C)C)c(OCc2nc(-c3nonc3N)no2)c1
IC50 [1]: > 64 µM (inactive)

CCOC(=O)Cc1csc(NC(=O)c2cc(=O)c3ccccc3o2)n1
IC50 (Galanin receptor type 3): 3.82 µM (active)
EC50 (cells [7]): > 29.9 µM (inactive)

O=C(CSc1nnc[nH]1)Nc1ccc2c(c1)OCCO2
IC50 (Leucine aminopeptidase): 64.9 µM (active)

Cc1cc(C)nc(NS(=O)(=O)c2ccc(NC(=O)CSc3nc(O)c(C#N)c(-c4ccccc4)n3)cc2)n1
IC50 (Major prion protein): 6.28 µM (active)
IC50 (cells [2]): > 138 µM (inactive)

CCOC(=O)Cn1c(-c2nonc2NC(=O)c2ccccc2F)nc2ccccc21
CC50 [8]: > 6.25 µM (active)
IC50 (Vero): 0.98 µM (active)
IC50 (cells [9]): 4.57 µM (active)

CC(C)N(C(=O)c1sc2cc([N+](=O)[O-])ccc2c1Cl)C(C)C
IC50 [10]: 1.98 µM (not active)

CC(=O)c1cccc(NC(=O)c2nc(-c3ccccc3)oc2C)c1
IC50 [1]: 50 µM (inactive)

O=C(O)Cn1cc(/C=C2/SC(=O)N(CC(=O)N3CCCCCC3)C2=O)c2ccccc21
IC50 (Aminopeptidase N): 82.3 µM (active)

Cc1cccc(C)c1NC(=O)CSc1ncnc2nc[nH]c12
IC50 (Leucine aminopeptidase): 39.9 µM (active)

CCOC(=O)CSc1ccc2ccccc2n1
IC50 (Major prion protein): 9.54 µM (active)
IC50 (cells [2]): > 138 µM (inactive)

Cc1c(Cl)cccc1NC(=O)CCC(=O)NNC(=O)c1ccccc1Cl
IC50 [1]: > 64 µM (inactive)

CCn1ncc(C2=NOC(C(=O)NCc3ccc(Cl)cc3)C2)c1C (stereo not drawn)
IC50 [11]: > 80 µM (inactive)

CC1=C(c2ccccc2)SC2=NCCN21
EC50 [12]: > 50 µM (active)
AC50 [13]: > 30 µM (inactive)

CCCN(c1ccc(OCC)cc1)S(=O)(=O)c1ccc2c(c1)NC(=O)CO2
IC50 (Major prion protein): 13.1 µM (inactive)
IC50 (cells [2]): > 138 µM (inactive)

CC1CC(=O)N(CC(=O)Nc2ccc3c(c2)OCO3)c2ccccc2S1 (stereo not drawn)
IC50 (Leucine aminopeptidase): 21.9 µM (active)

COc1ccccc1N1CCN(C(=O)CSc2nc(-c3ccccc3)cc(=O)[nH]2)CC1
IC50 (Leucine aminopeptidase): 16 µM (active)

Cc1ccc(C(C(=O)NC2CCCC2)N(C(=O)Cc2cccs2)c2ccc(C)c(C)c2)o1 (stereo not drawn)
IC50 [10]: 10.9 µM (not active)

COc1cccc(/C=N/NC(=O)c2[nH]nc3c2CCc2ccccc2-3)c1O
EC50 [14]: 9.81 µM (active)
EC50 (cells [15]): 9.85 µM (active)
EC50 [16]: 1.49 µM (active)
EC50 (cells [17]): > 350 µM (not active)
IC50 [11]: 54 µM (inactive)
AC50 (HEK293): 5.71 µM (active)
AC50 (INS1): 0.796 µM (active)

Nc1nc(O)c2ncn([C@@H]3O[C@H](CNCc4ccc(OCCCN5CCOCC5)cc4)[C@@H](O)[C@H]3O)c2n1
AC50 [13]: > 30 µM (inactive)

C=CCNC(=S)N/N=C/c1ccc(C(C)(C)C)cc1
IC50 [10]: 10.9 µM (not active)

Cc1cc(Br)c(NC(=O)COC(=O)CC2CC3CCC2C3)c(Br)c1 (stereo not drawn)
AC50 [13]: 21.8 µM (active)

COC(=O)[C@@]12C[C@@H](CC(=O)NCc3ccccc3)C(=O)N(Cc3ccccc3)C1=CCC(C)(C)C2
AC50 [13]: 19.1 µM (active)

C[C@@H]1CCCCO[C@@H](CN(C)S(=O)(=O)c2ccc(F)cc2)[C@H](C)CN([C@H](C)CO)C(=O)c2cc(NS(=O)(=O)c3ccc(Cl)cc3)ccc2O1
AC50 (Paired box protein Pax-8): 5.05 µM (active)
AC50 [18]: 48.9 µM (active)
AC50 [19]: > 70 µM (inactive)

C[C@H](CO)N1C[C@H](C)[C@H](CN(C)S(=O)(=O)c2ccc(Cl)cc2)OCCCC[C@H](C)Oc2ccc(NS(=O)(=O)c3ccc(Cl)cc3)cc2C1=O
AC50 (Paired box protein Pax-8): 5.86 µM (active)
AC50 [18]: 34.3 µM (active)
AC50 [19]: 58.9 µM (active)
